Key:
Assay type in all cases: in vivo
[1] = system: Cabbage Looper (Trichoplusia ni); assay: Bioassay on Cabbage Looper (CL), 128-well diet tray assay; settings: Cabbage Looper, Table ABC, read-out: CL rating
Procedure, shortened: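 Second-instar larvae, one to five per well, placed on artificial diet surface-treated with 50 μg/cm^2 compound in acetone-water, eight wells per compound. Held 5-7 days at 25° C, 14:10 light-dark; percent mortality per well averaged across wells.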

[2] = system: Beet Armyworm (Spodoptera exigua); assay: Bioassay on Beet Armyworm (BAW), 128-well diet tray assay; settings: Beet Armyworm, Table ABC, read-out: BAW rating
Procedure, shortened: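 Second-instar larvae (one to five per well) placed on artificial diet surface-treated with 50 μg/cm^2 test molecule in 90:10 acetone-water, dried, eight wells per molecule. Held at 25° C, 14:10 light-dark, five to seven days; percent mortality recorded per well and averaged across the eight wells.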

[3] = system: Green Peach Aphid (Myzus persicae); assay: Bioassay on Green Peach Aphid (GPA), foliar spray on cabbage seedlings; settings: 72 h, Table ABC, read-out: GPA rating
Procedure: Example B: Bioassays on Green Peach Aphid (Myzus Persicae, MYZUPE) (“GPA”) Certain molecules disclosed in this document were tested against GPA using procedures described in the following example. In the reporting of the results, the “GPA & YFM Rating Table” was used (See Table Section). Cabbage seedlings grown in 3-inch pots, with 2-3 small (3-5 cm) true leaves, were used as test substrate. The seedlings were infested with 20-50 GPA (wingless adult and nymph stages) one day prior to chemical application. Four pots with individual seedlings were used for each treatment. Test molecules (2 mg) were dissolved in 2 mL of acetone/methanol (1:1) solvent, forming stock solutions of 1000 ppm test molecule. The stock solutions were diluted 5× with 0.025% Tween 20 in water to obtain the solution at 200 ppm test molecule. A hand-held aspirator-type sprayer was used for spraying a solution to both sides of […] leaves until runoff. Reference plants (solvent check) were sprayed with the diluent only containing 20% by volume of acetone/methanol (1:1) solvent. Treated plants were held in a holding room for three days at approximately 25° C. and ambient relative humidity (RH) prior to grading. Evaluation was conducted by counting the number of live aphids per plant under a microscope. Percent Control was measured by using Abbott's correction formula (W. S. Abbott, “A Method of Computing the Effectiveness of an Insecticide” J. Econ. Entomol. 18 (1925), pp. 265-267) as follows. Corrected % Control=100*(X−Y)/X • where • X=No. of live aphids on solvent check plants and • Y=No. of live aphids on treated plants The results are indicated in the table entitled “Table ABC: Biological Results” (See Table Section).

[4] = system: Yellow Fever Mosquito (Aedes aegypti); assay: Bioassay on Yellow Fever Mosquito (YFM) larvae, 96-well plate; settings: Table ABC
Procedure, shortened: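 About 1-day-old larvae in water with liver powder were added to wells holding compound from a 4000 ppm DMSO master diluted in 90:10 water:acetone. Plates covered and kept at room temperature for 3 days, then each well scored for mortality on a rating scale.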

SMILES | pest or weed control at 50 µg/cm2 [1] [%] | pest or weed control at 50 µg/cm2 [2] [%] | pest or weed control at 200 µg/mL [3] [%] | YFM rating [4]
O=C(NC1(C(=O)NCC(F)(F)F)CC1)c1ccc(/C(F)=C/C(c2cc(Cl)c(Cl)c(Cl)c2)C(F)(F)F)cc1C(F)(F)F (stereo not shown) [F3, (Z)-4-(1,4,4,4-Tetrafluoro-3-(3,4,5-trichlorophenyl)but-1-en-1-yl)-N-(1-((2,2,2-trifluoroethyl)carbamoyl)cyclopropyl)-2-(trifluoromethyl)benzamide] | 50 to 100 | 50 to 100 | 80 to 100 | 
Cc1cc(C(/C=C(\F)c2ccc(C(=O)NCC(=O)N(C)CC(F)(F)F)c(C(F)(F)F)c2)C(F)(F)F)cc(Cl)c1Cl (stereo not shown) [PF12, (Z)-4-(3-(3,4-Dichloro-5-methylphenyl)-1,4,4,4-tetrafluoro-but-1-en-1-yl)-N-(2-(methyl(2,2,2-trifluoroethyl)amino)-2-oxoethyl)-2-(trifluoromethyl)benzamide] | 50 to 100 | 50 to 100 |  | B (More than 0-Less than 80)
Cc1cc(C(/C=C(\F)c2ccc(C(=O)N[C@H](C)C(=O)NCC(F)(F)F)c(C(F)(F)F)c2)C(F)(F)F)cc(Cl)c1Cl (stereo partly shown) [PF13] | 50 to 100 | 50 to 100 |  | B (More than 0-Less than 80)
Cc1cc(C(/C=C(\F)c2ccc(C(=O)N[C@H](C)C(=O)N(C)CC(F)(F)F)c(C(F)(F)F)c2)C(F)(F)F)cc(Cl)c1Cl (stereo partly drawn) [PF14, 4-((Z)-3-(3,4-Dichloro-5-methylphenyl)-1,4,4,4-tetrafluorobut-1-en-1-yl)-N—((R)-1-(methyl(2,2,2-trifluoroethyl)amino)-1-oxopropan-2-yl)-2-(trifluoromethyl)benzamide] | 50 to 100 | 50 to 100 |  | A (80-100)
Cc1cc(C(/C=C(\F)c2ccc(C(=O)NC3(C(=O)NCC(F)(F)F)CC3)c(C(F)(F)F)c2)C(F)(F)F)cc(Cl)c1Cl (stereo not shown) [PF15] | 50 to 100 | 50 to 100 |  | B (More than 0-Less than 80)
CN(CC(F)(F)F)C(=O)CNC(=O)c1ccc(/C(F)=C/C(c2ccc(Cl)c(F)c2)C(F)(F)F)cc1C(F)(F)F (stereo not shown) [PF18, (Z)-4-(3-(4-Chloro-3-fluorophenyl)-1,4,4,4-tetrafluorobut-1-en-1-yl)-N-(2-(methyl(2,2,2-trifluoroethyl)amino)-2-oxoethyl)-2-(trifluoromethyl)benzamide] | 50 to 100 | 50 to 100 |  | B (More than 0-Less than 80)
C[C@@H](NC(=O)c1ccc(/C(F)=C/C(c2ccc(Cl)c(F)c2)C(F)(F)F)cc1C(F)(F)F)C(=O)NCC(F)(F)F (stereo partly drawn) [PF19, 4-((Z)-3-(4-Chloro-3-fluorophenyl)-1,4,4,4-tetrafluorobut-1-en-1-yl)-N—((R)-1-oxo-1-((2,2,2-trifluoroethyl)amino)propan-2-yl)-2-(trifluoromethyl)benzamide] | 50 to 100 | 50 to 100 |  | B (More than 0-Less than 80)
C[C@@H](NC(=O)c1ccc(/C(F)=C/C(c2ccc(Cl)c(F)c2)C(F)(F)F)cc1C(F)(F)F)C(=O)N(C)CC(F)(F)F (stereo partly drawn) [PF20, 4-((Z)-3-(4-Chloro-3-fluorophenyl)-1,4,4,4-tetrafluorobut-1-en-1-yl)-N—((R)-1-(methyl(2,2,2-trifluoroethyl)amino)-1-oxopropan-2-yl)-2-(trifluoromethyl)benzamide] | 50 to 100 | 50 to 100 |  | B (More than 0-Less than 80)
CN(CC(F)(F)F)C(=O)C1(NC(=O)c2ccc(/C(F)=C/C(c3ccc(Cl)c(F)c3)C(F)(F)F)cc2C(F)(F)F)CC1 (stereo not shown) [PF22, (Z)-4-(3-(4-Chloro-3-fluorophenyl)-1,4,4,4-tetrafluorobut-1-en-1-yl)-N-(1-(methyl(2,2,2-trifluoroethyl)carbamoyl)cyclopropyl)-2-(trifluoromethyl)benzamide] | 50 to 100 | 50 to 100 |  | B (More than 0-Less than 80)
C[C@@H](NC(=O)c1ccc(/C(F)=C/C(c2ccc(Br)c(Cl)c2)C(F)(F)F)cc1C(F)(F)F)C(=O)NCC(F)(F)F (stereo partly shown) [PF25] | 50 to 100 | 50 to 100 |  | B (More than 0-Less than 80)
C[C@@H](NC(=O)c1ccc(/C(F)=C/C(c2cc(Cl)cc(Br)c2)C(F)(F)F)cc1C(F)(F)F)C(=O)N(C)CC(F)(F)F (stereo partly drawn) [PF31, 4-((Z)-3-(3-Bromo-5-chlorophenyl)-1,4,4,4-tetrafluorobut-1-en-1-yl)-N—((R)-1-(methyl(2,2,2-trifluoroethyl)amino)-1-oxopropan-2-yl)-2-(trifluoromethyl)benzamide] | 50 to 100 | 50 to 100 |  | B (More than 0-Less than 80)
O=C(NC1(C(=O)NCC(F)(F)F)CC1)c1ccc(/C(F)=C/C(c2cc(Cl)cc(Br)c2)C(F)(F)F)cc1C(F)(F)F (stereo not shown) [PF32, (Z)-4-(3-(3-Bromo-5-chlorophenyl)-1,4,4,4-tetrafluorobut-1-en-1-yl)-N-(1-((2,2,2-trifluoroethyl)carbamoyl)cyclopropyl)-2-(trifluoromethyl)benzamide] |  |  | 0 to 80 | 
CN(CC(F)(F)F)C(=O)C1(NC(=O)c2ccc(/C(F)=C/C(c3cc(Cl)cc(Br)c3)C(F)(F)F)cc2C(F)(F)F)CC1 (stereo not shown) [PF33, (Z)-4-(3-(3-Bromo-5-chlorophenyl)-1,4,4,4-tetrafluorobut-1-en-1-yl)-N-(1-(methyl(2,2,2-trifluoroethyl)carbamoyl)cyclopropyl)-2-(trifluoromethyl)benzamide] | 50 to 100 | 50 to 100 |  | B (More than 0-Less than 80)
CN(CC(F)(F)F)C(=O)CNC(=O)c1ccc(/C(F)=C/C(c2ccc(Cl)c(Br)c2)C(F)(F)F)cc1C(F)(F)F (stereo not shown) [PF35, (Z)-4-(3-(3-Bromo-4-chlorophenyl)-1,4,4,4-tetrafluorobut-1-en-1-yl)-N-(2-(methyl(2,2,2-trifluoroethyl)amino)-2-oxoethyl)-2-(trifluoromethyl)benzamide] | 50 to 100 | 50 to 100 |  | B (More than 0-Less than 80)
C[C@@H](NC(=O)c1ccc(/C(F)=C/C(c2ccc(Cl)c(Br)c2)C(F)(F)F)cc1C(F)(F)F)C(=O)N(C)CC(F)(F)F (stereo partly drawn) [PF37, 4-((Z)-3-(3-Bromo-4-chlorophenyl)-1,4,4,4-tetrafluorobut-1-en-1-yl)-N—((R)-1-(methyl(2,2,2-trifluoroethyl)amino)-1-oxopropan-2-yl)-2-(trifluoromethyl)benzamide] | 50 to 100 | 50 to 100 |  | B (More than 0-Less than 80)
CN(CC(F)(F)F)C(=O)C1(NC(=O)c2ccc(/C(F)=C/C(c3ccc(Cl)c(Br)c3)C(F)(F)F)cc2C(F)(F)F)CC1 (stereo not shown) [PF39, (Z)-4-(3-(3-Bromo-4-chlorophenyl)-1,4,4,4-tetrafluorobut-1-en-1-yl)-N-(1-(methyl(2,2,2-trifluoroethyl)carbamoyl)cyclopropyl)-2-(trifluoromethyl)benzamide] | 50 to 100 | 50 to 100 |  | B (More than 0-Less than 80)
O=C(CNC(=S)c1ccc(/C(F)=C/C(c2cc(Cl)c(Cl)c(Cl)c2)C(F)(F)F)cc1C(F)(F)F)NCC(F)(F)F (stereo not shown) [PF82, (Z)-2-(4-(1,4,4,4-tetrafluoro-3-(3,4,5-trichlorophenyl)but-1-en-1-yl)-2-(trifluoromethyl)phenylthioamido)-N-(2,2,2-trifluoroethyl)acetamide] | 50 to 100 | 50 to 100 |  | A (80-100)
O=C(NCC(=S)NCC(F)(F)F)c1ccc(/C(F)=C/C(c2cc(Cl)c(Cl)c(Cl)c2)C(F)(F)F)cc1C(F)(F)F (stereo not shown) [PF94, (Z)-4-(1,4,4,4-tetrafluoro-3-(3,4,5-trichlorophenyl)but-1-en-1-yl)-N-(2-thioxo-2-((2,2,2-trifluoroethyl)amino)ethyl)-2-(trifluoromethyl)benzamide] | 50 to 100 | 50 to 100 |  | A (80-100)

— patent US10251394B2, “Molecules having pesticidal utility, and intermediates, compositions, and processes, related thereto” (Dow AgroSciences LLC, priority 2016, dated 2019)
